# Columns and labels:
# [1] = tested on: breast cancer specimens obtained from patients; test: Breast cancer patient specimens, ex vivo sponge culture; type: cell-based, human
# Method: Specimens from breast cancer patients were collected with patient consent under a protocol approved by the UTHSC Institutional Review Board (IRB). Specimens were collected immediately after surgery in RPMI medium containing penicillin:streptomycin and Fungizone and transported to the laboratory on ice. The tissues were finely minced and treated with collagenase for 2 hours.
# HCI-13 tumors grown in female mice were allowed to reach 500-1000 mm^3 before the animals were sacrificed and the tumors were excised to be used for sponge culture. Patient specimens frozen in liquid nitrogen in freezing medium were used for sponge culture. […] Tumors were sliced into small pieces (˜1 mm^3) and incubated on pre-soaked gelatin sponges (5 fragments/sponge) in 12 well plates containing 1.5 mL medium (MEM+10% FBS+2 mM L-glutamine+10 μg/mL insulin+10 μg/mL hydrocortisone+penicillin:streptomycin). The cultures were performed in triplicates for HCI-13 and singly for patient specimens. Pooled samples (n=5/sponge) from each sponge constituted one sample. Tissues were harvested after 3 days of treatment, RNA extracted, and expression of various genes measured. Although the same procedure was adopted for specimens obtained from breast cancer patients, the specimens were cultured singly (n=5/sponge=one sample) and not in triplicates as performed for HCI-13.
# Like other cancers, breast cancer is also heterogeneous in its genomic profile as well as in its response to treatments. […] Three days after treatment, RNA was isolated from the tissues and expression of ER- and AR-target genes was measured.
# AR = target: T1, AR (Homo sapiens, UniProt P10275); conditions: cited from earlier work
# T1 sequence (P10275 1-920): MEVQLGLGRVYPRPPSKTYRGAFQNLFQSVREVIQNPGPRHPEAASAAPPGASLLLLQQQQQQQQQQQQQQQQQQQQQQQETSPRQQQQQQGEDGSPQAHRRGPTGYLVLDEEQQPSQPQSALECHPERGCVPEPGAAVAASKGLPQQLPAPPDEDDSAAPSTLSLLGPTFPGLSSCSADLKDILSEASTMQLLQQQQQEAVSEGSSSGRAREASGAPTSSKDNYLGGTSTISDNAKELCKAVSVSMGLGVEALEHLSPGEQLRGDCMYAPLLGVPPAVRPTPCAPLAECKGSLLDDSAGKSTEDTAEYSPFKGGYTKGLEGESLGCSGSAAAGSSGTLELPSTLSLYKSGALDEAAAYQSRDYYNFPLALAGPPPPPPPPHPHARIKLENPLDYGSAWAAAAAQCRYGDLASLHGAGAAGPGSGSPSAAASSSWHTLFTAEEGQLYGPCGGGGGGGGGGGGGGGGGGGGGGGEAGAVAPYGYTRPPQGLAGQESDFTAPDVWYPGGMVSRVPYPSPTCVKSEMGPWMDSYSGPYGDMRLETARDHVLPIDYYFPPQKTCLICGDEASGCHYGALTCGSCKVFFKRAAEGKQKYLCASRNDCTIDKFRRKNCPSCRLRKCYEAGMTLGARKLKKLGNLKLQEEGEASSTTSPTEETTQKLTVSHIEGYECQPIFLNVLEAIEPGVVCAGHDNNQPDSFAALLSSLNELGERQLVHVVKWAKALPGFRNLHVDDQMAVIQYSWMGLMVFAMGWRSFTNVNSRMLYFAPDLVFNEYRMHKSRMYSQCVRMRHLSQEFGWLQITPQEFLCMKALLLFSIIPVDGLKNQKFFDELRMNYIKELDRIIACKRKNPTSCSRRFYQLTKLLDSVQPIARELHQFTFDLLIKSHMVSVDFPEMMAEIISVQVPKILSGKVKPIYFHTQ
# MDA-MB-231-AR tumors = test: Affymetrix microarray of MDA-MB-231-AR tumors; type: in vivo, mice
# Method: RNA was extracted from MDA-MB-231-AR tumors (n=5/group) treated with vehicle or compound of Formula VIII. RNA was pooled and Affymetrix microarray was performed to determine the change in expression of gene signature.
# Microarray Analysis was performed on RNA from MDA-MB-231-AR and MCF-7-AR tumors in order to identify and compare changes in gene expression in ER-negative (MDA-MB-231-AR; triple negative) an ER-positive (MCF-7-AR; triple positive) breast cancer tumors treated with a compound of Formula VIII (30 mg/kg/day p.o. for 4 weeks). Affymetrix analysis of the xenografts was done on pooled samples of the xenografts. The analysis included ˜70,000 sequences with ˜30,000 genes and variations thereof represented, as well as microRNA's. RNA was isolated and expression of genes was evaluated using microarray (Affymetrix Human Gene ST 2.0 array). Expression of genes in compound of Formula VIII-treated samples was compared with the expression in vehicle-treated samples.
# MCF-7-AR cells = test: MCF-7-AR xenograft in ovariectomized, estradiol-supplemented mice; type: in vivo
# Method: Once tumors reached 100-200 mm^3, the animals were randomized and treated with vehicle or 30 mg/kg per day of Formula VIII. Tumor volumes and body weights were measured thrice weekly. At the end of 5 weeks of treatment, the animals were sacrificed, tumors weighed and stored for RNA and protein isolation and histology. * significance at P<0.05.
# All animal protocols were approved by The University of Tennessee Health Science Center (UTHSC) Institutional Animal Care and Use Research Committee. Xenograft experiments were performed as previously published (Narayanan et al. (2014) PLoS One 9, e103202). Briefly, 3 million MCF-7 cells were suspended in 0.05 ml MEM+10% FBS and 0.05 ml Matrigel/nude mouse and were injected subcutaneously. Once the tumor size reached 100-200 mm^3, the animals were randomized and treated orally with the indicated drugs formulated in DMSO:PEG-300 (15:85). HCI-7, HCI-9, and HCI-13 PDXs were gifts kindly donated by Dr. Alana Welm (Huntsman Cancer Institute, Salt Lake City, Utah). HCI PDX tumor fragments (1 mm^3) were surgically implanted under the mammary fat pad in female NOD SCID Gamma (NSG) mice. Tumor volume was measured twice weekly for MCF-7 xenograft and once or twice weekly for HCI PDXs. At the end of the study, animals were sacrificed and tumors were excised, weighed, and stored for various analyses.
compound,measurement,setting,value
"C[C@](O)(COc1ccc(C#N)cc1)C(=O)Nc1ccc(C#N)c(C(F)(F)F)c1 [Formula IX, (S)—N-(4-Cyano-3-(trifluoromethyl)phenyl)-3-(4-cyanophenoxy)-2-hydroxy-2-methylpropanamide]",specimens in which AR agonist activity was observed,[1]; 1 μM,4 of 8
same,specimens in which ER function was inhibited,"[1]; 1 μM Formula IX, 100 nM fulvestrant, 3 days",3 of 8
same,concentration at which it binds to and activates the AR,AR,less than 10 nM
"C[C@](O)(COc1ccc(C#N)cc1)C(=O)Nc1ccc(C#N)c(Cl)c1 [Formula VIII, (S)—N-(3-chloro-4-cyanophenyl)-3-(4-cyanophenoxy)-2-hydroxy-2-methylpropanamide]",Aurora kinase expression,MDA-MB-231-AR tumors; Table 8,Decreased
same,BUB1 S/T kinase expression,MDA-MB-231-AR tumors; Table 8,Decreased
same,CENPE expression,MDA-MB-231-AR tumors; Table 8,Decreased
same,EHMT2 expression,MDA-MB-231-AR tumors; Table 8,Decreased
same,ERCC1 expression,MDA-MB-231-AR tumors; Table 8,Decreased
same,IGFBP3 expression,MDA-MB-231-AR tumors; Table 8,Decreased
same,ITGA2 expression,MDA-MB-231-AR tumors; Table 8,Decreased
same,NQO1 expression,MDA-MB-231-AR tumors; Table 8,Increased
same,PARP1 expression,MDA-MB-231-AR tumors; Table 8,Decreased
same,POLD1 expression,MDA-MB-231-AR tumors; Table 8,Decreased
same,PTPRJ expression,MDA-MB-231-AR tumors; Table 8,Increased
same,β-Adrenoceptor2 expression,MDA-MB-231-AR tumors; Table 8,Decreased
same,FKBP51 induction,MDA-MB-231-AR tumors; Table 10,∞
same,IRS2 induction,MDA-MB-231-AR tumors; Table 10,4.40 Fold
same,MUC1 induction,MDA-MB-231-AR tumors; Table 10,9 Fold
same,PTGS2 induction,MDA-MB-231-AR tumors; Table 10,14 Fold
same,SNAI2/SLUG induction,MDA-MB-231-AR tumors; Table 10,2.10 Fold
same,genes Up,MDA-MB-231-AR tumors; more than 2 fold vs vehicle,720
same,growth inhibition of xenografts,"MCF-7-AR cells; 30 mg/kg per day, 5 weeks",greater than 50%
same,uterus weight,MCF-7-AR cells; estrogen supplemented animals,inhibited
